According to patent US20250051283A1, “THERAPEUTIC COMPOUNDS AND METHODS” (priority 2023, published 2025):
Where two headings read alike, the source gives them in different places.

Legend:
EV-D68 2A^pro = EV-D68 2A^pro (Enterovirus D68, UniProt A0A097BW19); experiment: FRET-based enzymatic assay of EV-D68 2Apro inhibition; type: biochemical; conditions: for IC50: read-out: Enzymatic inhibitory activity IC50
Method: (§1) Protein expression and purification. EV-D68 2A^pro gene from strain US/KY/14-18953 was ordered from Genscript (Piscataway, NJ) in pET28b(+) vector with E. coli codon optimization. 2A^pro gene was subcloned into pE-SUMOstar vector according to the manufacturers protocol. Plasmid encoding WT-2A^pro was transformed into BL21(DE3) competent E. coli cells, and a single colony was picked and used to inoculate 10 mL of L.B. grown supplemented with 50 μg/mL kanamycin at 37° C. at 250 rpm. The 10 mL inoculant was added to 1 L of L.B. with 50 μg/mL kanamycin and grown to an OD600 of 0.8-1.0, cooled to 18° C., then induced using 0.5 mM IPTG. Induced cultures were incubated at 18° C. for an additional 24 h, then harvested and resuspended in lysis buffer (25 mM Tris (pH 7.5); 750 mM NaCl, 2 mM DTT with 0.5 mg/mL lysozyme, 0.5 mM PMSF and 0.02 mg/mL DNase I) and lysed with alternating sonication and French press cycles. The cell debris were removed by centrifugation at 12,000×g for 45 min […]. The supernatant was incubated with Ni-NTA resin for over 2 h at 4° C. on a rotator. The Ni-NTA resin was thoroughly washed with 50 mM imidazole in wash buffer (50 mM Tris (pH 7.5), 150 mM NaCl, and 2 mM DTT); for the SUMO-tagged protein, the protein was directly eluted with 300 mM imidazole; for the nontagged 2A^pro Ni-NTA resin was treated with SUMO Protease 1 to remove the SUMO tag, then 2A^pro was washed off from the column with 10 mM imidazole in wash buffer. The imidazole was removed via dialysis or 10 K molecular weight cut-off centrifugal concentrator spin column. The purity of the protein was confirmed with SDS-PAGE. The protein concentration was determined by classic BCA assay using bovine serum albumin as a standard. EV-D68 3C^pro in pET28b(+) vector was expressed as previously described^10.
(§2) Peptide synthesis. The FRET substrate of EV-D68 2A^pro, Dabcyl-KIRIVNT/GPGFGGE-Edans, was synthesized using the Fmoc solid phase synthesis strategy.
(§3) Enzymatic assays. The reaction buffer contains 50 mM Tris (pH7.0), 150 mM NaCl, 10% Glycerol, and 2 mM DTT, and the reaction was carried out at 30° C. in Cytation 5 imaging reader (Fisher Scientific) with EX360/40-EM460/40 filter. Reactions were monitored every 90 sec. […] The reaction was initiated by adding 20 μM of FRET substrate, and the reaction was monitored for 2 hours and initial velocity was calculated for the first 30 minutes via linear regression.

EV-D68 US/MO/14-18947 = experiment: CPE assay (neutral red) with EV-D68 US/MO/14-18947 in R.D. cells; type: cell-based, Enterovirus D68
Method: Cell lines and viruses. Human rhabdomyosarcoma (R.D., ATCC, CCL-136) cells were maintained at 37° C. in a 5% CO2 atmosphere and cultured in Dulbecco's modified Eagle's medium (DMEM) supplemented with 10% fetal bovine serum (FBS) and 1% penicillin-streptomycin antibiotics. The following reagents were obtained through BEI Resources, NIAID, NIH: Human Enterovirus D68, US/MO/14-18949, NR-49130; Enterovirus D68, US/MO/14-18947, NR-49129; Enterovirus D68, US/IL/14-18952, NR-49131; Enterovirus D68, US/KY/14-18953, NR-49132; Enterovirus D68, US/IL/14-18956, NR-49133.
Antiviral assays. Cells for antiviral assays were seeded and grown overnight at 37° C. in a 5% CO2 atmosphere for ˜90% confluency the next day. For all infections, cells were washed with PBS containing magnesium and calcium and infected with virus diluted in DMEM with 2% FBS and 30 mM MgCl2. Viruses were incubated for at least 1 h at 33° C. in a 5% CO2 atmosphere, followed by the addition of compound as well as 1% penicillin-streptomycin. For CC50 measurements, the experiment was performed similarly but excluded viral infection. For cytopathic effect (CPE) assays, cells were stained with 66 µg/mL neutral red for 2 h and neutral red uptake was measured at absorbance 540 nm using a Multiskan FC Microplate Photometer (ThermoFisher Scientific). The EC50 and CC50 values were calculated from best-fit dose response curves using GraphPad Prism. For plaque reduction assays, an 1.2% avicel microcrystalline cellulose (FMC BioPolymer, Philadelphia, PA) overlay was used and cells were stained after 3 days as previously described^26.

[1] = target: T1, EV-D68 2A^pro (WT-2A^pro, strain US/KY/14-18953, expressed in E. coli BL21(DE3) from pE-SUMOstar vector) (enterovirus D68, UniProt A0A097BW19); experiment: FRET-based enzymatic assay of EV-D68 2A^pro inhibition (FRET substrate Dabcyl-KIRIVNT/GPGFGGE-Edans); type: biochemical
T1 construct: E. coli-codon-optimised gene, pE-SUMOstar, His-SUMO tag (removed with SUMO protease for nontagged form), E. coli BL21(DE3), Ni-NTA; 7JRE is the C107A mutant
Method: (§4) FIG. 4. […] Key structural variations compared to telaprevir were highlighted in red. Enzymatic inhibitory activity IC50 value was determined in the FRET-based assay. Antiviral EC50 value was determined in the CPE assay with EV-D68 US/MO/14-18947 in R.D. cells. Cytotoxicity CC50 value was determined using the neutral red uptake method in R.D. cells. The results are the mean±standard deviation of two independent experiments with three repeats in each experiment.
as §4, with “5.” for “4.”, “Jun8861” for “telaprevir”
as §1, §2, §3

[2] = CPE assay, EV-D68 US/MO/14-18947 in R.D. cells
[3] = Enterovirus D, EVD68, RD, read-out: Antiviral EC50, CPE assay, EV-D68 US/MO/14-18947 in R.D. cells

## CC(C)[C@H](NC(=O)[C@@H]1[C@H]2CCC[C@H]2CN1C(=O)[C@@H](NC(=O)CC12CC3CC(CC(C3)C1)C2)C(C)(C)C)C(=O)C(=O)NC1CC1 [Jun11718, (1S,3aR,6aS)-2-((S)-2-(2-((3S,5S,7S)-adamantan-1-yl)acetamido)-3,3-dimethylbutanoyl)-N—((S)-1-(cyclopropylamino)-4-methyl-1,2-dioxopentan-3-yl)octahydrocyclopenta[c]pyrrole-1-carboxamide]
EV-D68 2A^pro
  enzymatic inhibition, in words, relative to the named comparator: comparable enzymatic inhibition and antiviral activity as Jun8861
EV-D68 US/MO/14-18947; [2]
  antiviral activity, in words, relative to the named comparator: comparable enzymatic inhibition and antiviral activity as Jun8861

## CCC[C@H](NC(=O)[C@@H]1[C@H]2CCC[C@H]2CN1C(=O)[C@@H](NC(C)=O)C(C)(C)C)C(=O)C(=O)NC1CC1 [Jun8862, (1S,3aR,6aS)-2-((S)-2-acetamido-3,3-dimethylbutanoyl)-N—((S)-1-(cyclopropylamino)-1,2-dioxohexan-3-yl)octahydrocyclopenta[c]pyrrole-1-carboxamide]
EV-D68 2A^pro
  IC50: 940 nM

## CCC[C@H](NC(=O)[C@@H]1[C@H]2CCC[C@H]2CN1C(=O)[C@@H](NC(=O)CC1CCC(F)(F)CC1)C(C)(C)C)C(=O)C(=O)NC1CC1 [Jun975, (1S,3aR,6aS)—N—((S)-1-(cyclopropylamino)-1,2-dioxohexan-3-yl)-2-((S)-2-(2-(4,4-difluorocyclohexyl)acetamido)-3,3-dimethylbutanoyl)octahydrocyclopenta[c]pyrrole-1-carboxamide]
EV-D68 2A^pro
  IC50: 80 to 140 nM
EV-D68 US/MO/14-18947; [3]
  EC50: 160 to 750 nM
[1]
  IC50: 140 ± 10 nM

## CCC[C@H](NC(=O)[C@@H]1[C@H]2CCC[C@H]2CN1C(=O)OCc1ccccc1)C(=O)C(=O)NC1CC1 [Jun7424, Benzyl (1S,3aR,6aS)-1-(((S)-1-(cyclopropylamino)-1,2-dioxohexan-3-yl)carbamoyl)hexahydrocyclopenta[c]pyrrole-2(1H)-carboxylate]
EV-D68 2A^pro
  IC50: 4350 nM

## (1S)-2-((S)-2-(2-((3S,5S,7S)-adamantan-1-yl)acetamido)-3,3-dimethylbutanoyl)-N-((2S)-4-(cyclopropylamino)-3-hydroxy-4-oxo-1-(thiophen-3-yl)butan-2 yl)octahydrocyclopenta[c]pyrrole-1-carboxamide [Jun11818]
EV-D68 2A^pro
  enzymatic inhibition, in words, relative to the named comparator: comparable enzymatic inhibition and antiviral activity as Jun11385
EV-D68 US/MO/14-18947; [2]
  antiviral activity, in words, relative to the named comparator: comparable enzymatic inhibition and antiviral activity as Jun11385

## CCC[C@H](NC(=O)[C@@H]1[C@H]2CCC[C@H]2CN1C(=O)[C@@H](NC(=O)[C@@H](NC(=O)OCc1ccccc1)C1CCCCC1)C(C)(C)C)C(=O)C(=O)NC1CC1 [Jun7453, Benzyl ((S)-1-cyclohexyl-2-(((S)-1-((1S,3aR,6aS)-1-(((S)-1-(cyclopropylamino)-1,2-dioxohexan-3-yl)carbamoyl)hexahydrocyclopenta[c]pyrrol-2(1H)-yl)-3,3-dimethyl-1-oxobutan-2-yl)amino)-2-oxoethyl)carbamate]
EV-D68 US/MO/14-18947; [3]
  EC50: 630 nM
[1]
  IC50: 360 ± 20 nM

## CCC[C@H](NC(=O)[C@@H]1[C@H]2CCC[C@H]2CN1C(=O)[C@@H](NC(=O)NC(C)(C)C)C(C)(C)C)C(=O)C(=O)NC1CC1 [Jun9475, (1S,3aR,6aS)-2-((S)-2-(3-(tert-butyl)ureido)-3,3-dimethylbutanoyl)-N—((S)-1-(cyclopropylamino)-1,2-dioxohexan-3-yl)octahydrocyclopenta[c]pyrrole-1-carboxamide]
EV-D68 2A^pro
  IC50: 1160 nM

## CCC[C@H](NC(=O)[C@@H]1[C@H]2CCC[C@H]2CN1C(=O)[C@@H](NC(=O)NC12CC3CC(CC(C3)C1)C2)C(C)(C)C)C(=O)C(=O)NC1CC1 [Jun1023, (1S)-2-((S)-2-(3-((3R,5R,7R)-adamantan-1-yl)ureido)-3,3-dimethylbutanoyl)-N—((S)-1-(cyclopropylamino)-1,2-dioxohexan-3-yl)octahydrocyclopenta[c]pyrrole-1-carboxamide]
EV-D68 2A^pro
  enzymatic inhibition, in words, relative to the named comparator: reduced enzymatic inhibition
EV-D68 US/MO/14-18947; CPE assay, EV-D68 US/MO/14-18947 in R.D. cells, read-out: Antiviral EC50
  EC50: 700 nM

## CC(C)C[C@H](NC(=O)[C@@H]1[C@H]2CCC[C@H]2CN1C(=O)[C@@H](NC(=O)CC12CC3CC(CC(C3)C1)C2)C(C)(C)C)C(=O)C(=O)NC1CC1 [Jun11389, (1S,3aR,6aS)-2-((S)-2-(2-((3S,5S,7S)-adamantan-1-yl)acetamido)-3,3-dimethyl-butanoyl)-N—((S)-1-(cyclopropylamino)-5-methyl-1,2-dioxohexan-3-yl)octahydro-cyclopenta[c]pyrrole-1-carboxamide]
EV-D68 US/MO/14-18947; [2]
  antiviral activity, in words, relative to the named comparator: failed to improve the antiviral potency compared to Jun8861
[1]
  IC50: 260 ± 50 nM

## CC(C)(C)[C@H](NC(=O)CC12CC3CC(CC(C3)C1)C2)C(=O)N1C[C@@H]2CCC[C@@H]2[C@H]1C(=O)N[C@@H](Cc1c[nH]c2ccccc12)C(=O)C(=O)NC1CC1 [Jun11862, (1S,3aR,6aS)-2-((S)-2-(2-((3S,5S,7S)-adamantan-1-yl)acetamido)-3,3-dimethylbutanoyl)-N—((S)-4-(cyclopropylamino)-1-(1H-indol-3-yl)-3,4-dioxobutan-2-yl)octahydrocyclopenta[c]pyrrole-1-carboxamide]
EV-D68 2A^pro
  enzymatic inhibition, in words, relative to the named comparator: comparable enzymatic inhibition and antiviral activity as Jun11385
EV-D68 US/MO/14-18947; [2]
  antiviral activity, in words, relative to the named comparator: comparable enzymatic inhibition and antiviral activity as Jun11385

## CC(C)(C)C(NC(=O)CC12CC3CC(CC(C3)C1)C2)C(=O)N1CC2CCCC2C1C(=O)NC(Cc1ccc(F)cc1)C(=O)C(=O)NC1CC1 [Jun11763, (1S,3aR,6aS)-2-((S)-2-(2-((3S,5S,7S)-adamantan-1-yl)acetamido)-3,3-dimethylbutanoyl)-N—((S)-4-(cyclopropylamino)-1-(4-fluorophenyl)-3,4-dioxobutan-2-yl)octahydrocyclo-penta[c]pyrrole-1-carboxamide]
EV-D68 2A^pro
  IC50: 150 nM
EV-D68 US/MO/14-18947; [3]
  EC50: 190 nM
